What was measured:
IL-10 = test: Measurement of human IL-10 amount in culture supernatant of MT2 cells with ELISA kit (Test 1); type: cell-based; conditions: 48±2 hours
Procedure: (§1) MT2 cells from human adult T-cell leukemia were used. Leukemia cells of human adult T-cell leukemia (ATL) express CD4 and CD25 molecules on the cell surface and are considered to be derived from Treg (Chen S. et al., International Immunology 18:269-277 (2005)). MT2 cells were used in experiments as models of Treg since the cells are CD4 positive, CD25 positive, and FOXP3 positive celles derived from ATL.
(§2) The example compounds (compounds 1-17) of the present invention were dissolved in dimethylsulfoxide (DMSO) to prepare each 50 mmol/L solution, which was preserved at −80° C.
The amount of IL-10 production in the control and the example compounds was measured to evaluate the inhibitory effect on IL-10 production of the example compounds of the present invention.
(1) MT2 cells are suspended in RPMI1640 medium (hereinafter referred to as “the medium”) supplemented with 10% fetal calf serum (FCS) and 1% penicillin/streptomycin (P/S) to give 3×10^5 cells/mL suspension, and 1 mL of the suspension was added to each well of a 24-well plate. […] The cell cultures were incubated 48±2 hours in a CO2 incubator (under a condition of 37° C., 5 CO2). DMSO was diluted 50-fold with the medium, and 20 μL of the diluent was added to the well to make a control of compounds 1-7. In addition, DMSO was diluted 50-fold with the medium, and 25.0 μL of the diluent was added to the well to make a control of compounds 8-17.
(2) A piece of the cell culture was sampled to count cells with a cell counter (BIO RAD TC-20). The cell culture was centrifuged at 300×g for 5 minutes and the supernatant was collected as a sample for IL-10 measurement. When not measured within a day, it was preserved in a freezer at −80° C.
(3) Human IL-10 ELISA kit II (BD OptEIA) was used on the measurement. The kit contains wells treated with anti-IL-10 antibody (8 wells/strip), Standard/Sample diluent, vials comprising freeze-dried IL-10 Standard (1280 pg/vial), ELISA diluent, 20× Wash Buffer, Detection antibody, Enzyme Concentrate, TMB One Step Substrate Reagent, Stop Solution, and cover sheets.
(4) To a vial containing IL-10 Standard was added […] Standard/Sample diluent, and the vial was stood at room temperature for 15 minutes to be dissolved (Standard sample stock solution 1L-10 concentration: 500 pg/mL).
(5) Standard samples in each concentration for making a standard curve were prepared as follows. Firstly, to 300 μL of the medium was added 300 μL of the standard sample stock solution, and the mixture was mixed with a Voltex mixer (250 pg/mL). Next, 300 μL of the standard sample of 250 pg/mL was added to 300 μL of the medium and the mixture was mixed with a Voltex mixer (125 pg/mL). The same procedures were successively repeated to prepare standard solutions of 62.5, 31.25, 15.625, and 7.8125 pg/mL. As 0 pg/mL standard solution, the medium was used.
(6) A kit containing wells treated with anti-IL-10 antibody (8 wells/strip) was warmed to room temperature and 50 μL of ELISA diluent in the kit was added into each well.
(7) To each well containing ELISA diluent, 100 μL of the standard samples of each concentration and each test sample (diluded 50-100 fold with medium) were added.
(8) After the wells were sealed with a cover sheet and gently tapped, they were left at room temperature for 2 hours.
(9) 20× Wash Buffer was diluted 20-fold with water to prepare 1× Wash Buffer.
(10) After the reaction was done for 2 hours, the solutions in each well were aspirated and washed 5 times with 300 μL of 1× Wash Buffer.
(11) After Enzyme Concentrate (4 μL per 8 wells) was added to Detection antibody (1 ml per 8 wells), the solution was mixed by a Vortex mixer and then a necessary amount of Working Detector was prepared.
(12) 100 μL of Working Detector was added to each well, covered with a cover sheet, and the wells were left at room temperature for an hour.
(13) After the reaction was done for an hour, the solutions in wells were aspirated and washed 7 times with 300 μL of 1× Wash Buffer. […]

CTLA-4 = test: Intracellular staining of MT2 cells with fluorescence-labeled anti-CTLA-4 antibody and measurement by flow cytometry; type: cell-based, human; conditions: 48±2 hours; for Peak MFI of CTLA-4: isotype IgG2a subtracted, average of n=3
Procedure: as §1, §2
(1) MT2 cells were suspended in RPMI1640 medium (hereinafter referred to as “the medium”) supplemented with 10% fetal calf serum (FCS) and 1° penicillin/streptomycin (P/S) to give 3×10^5 cells/mL suspension and 3 mL of the suspension was added to each well of a 6-well plate. To each well were added 0.6 or 1.2 μL of the test compound solutions (compounds 1, 2, and 4), 0.75 or 1.5 μL of the test compound solution (compound 9), and 1.5 μL of the test compound solutions (compounds 8 and 10-17), and the cell cultures were incubated in a CO2 gas incubator (under 37° C., 5% CO2) and cultured for 48±2 hours. As a control of compound 1, 2 and 4, only 1.2 μL of DMSO was added to the well. In addition, as a control of compound 8-17, only 1.5 μL of DMSO was added to the well.
(2) A piece of the cell culture was sampled to count cells with a cell counter (BIO RAD TC-20). The cell culture was centrifuged at 300×g for 5 min, and the supernatant was removed. The residue was suspended in phosphate buffered saline (supplemented with 1% bovine serum albumin (BSA), without calcium and magnesium) (1% BSA/PBS) to adjust the concentration of cells to 5-10×10^6 cells/mL.
(3) To 5 ml tube, each 50 μL of the cell suspension was added.
(4) Foxp3/Transcription Factor Fix/Perm Concentrate (4×) (Cat. No. TNB-1020-L050) (Solution A) in FOXP3/Transcription Factor Staining kit (TONBO biosciences) was diluted with Foxp3/Transcription Factor Fix/Perm Diluent (1×) (Cat. No. TNB-1022-L160) (for dilution of Solution A) to prepare 1× Solution A.
(5) 1 mL of 1× Solution A was added to each tube and mixed by gentle pipetting. Subsequently, it was left at room temperature for 30 min, centrifuged at 300×g for […], and the supernatant was discarded.
(6) Flow Cytometry Perm Buffer (10×) (Cat. No. TNB-1213-L150) (Solution B) in the kit was diluted 10-fold with water to prepare 1× Solution B.
(7) 2 mL of 1× Solution B was added to the tube and centrifuged at 300×g for 5 min. The supernatant was discarded. 2 μL of 2% normal mouse serum/PBS was added to the tube and the tube was gently pipetted. Subsequently, it was left at room temperature for 15 min.
(8) In the CTLA-4 measurement, 20 μL of anti-CTLA-4 antibody (BECKMAN COULTER, CD152-PE clone BN13I M2282) or mouse IgG2a (BECKMAN COULTER, IgG2a (Mouse)-PE A09142) for the control was added to the tube and the tube was gently stirred. Subsequently, it was left in the dark at room temperature for 30 min, and 2 mL of the 1× Solution B was added thereto, the mixture was centrifuged at 300×g for 5 min, and the supernatant was discarded. 2 mL of the 1× Solution B was added to the tube again, the mixture was centrifuged at 300×g for 5 min, and the supernatant was discarded.
(9) Within 2 hours after the solution in the tube was suspended in 0.5 mL of 1% BSA/PBS, and the fluorescence at 577 nm was measured with 488 nm excitation with a flow cytometer (Sony: Cell Sorter SH800). The results were analyzed with software, FlowJo (Tree Star Inc.). The mean peak fluorescence intensity (MFI) of CTLA-4 and mean peak fluorescence intensity of isotype control IgG2a were calculated from histgrams of the measured fluorescence intensity and number of cells, and mean fluorescence intensity of IgG2a was subtracted from that of CTLA-4. Experiments were conducted in n=3, and the average values were shown.

[1] = Homo sapiens, 48 h, 12.5 μmol/L, DMSO control = 100%, read-out: % against control (IL-10 production)
[2] = Homo sapiens, 48 h, 25.0 μmol/L, DMSO control = 100%, read-out: % against control (IL-10 production)
[3] = Homo sapiens, 48 h, 25.0 μmol/L, DMSO control = 100%, read-out: % against control (CTLA-4 expression)

Row | Structure (SMILES) | IL-10 (ng/10^6 cells) ± standard deviate (n = 3) (IL-10; 12.5 μmol/L) [ng/10^6 cells] | IL-10 (ng/10^6 cells) ± standard deviate (n = 3) (IL-10; 25.0 μmol/L) [ng/10^6 cells] | activity at 12.5 µM (IL-10; [1]) [%] | activity at 25 µM (IL-10; [2]) [%] | Peak MFI of CTLA-4 (CTLA-4; 25.0 μmol/L) | activity at 25 µM (CTLA-4; [3]) [%] | IL-10 (ng/10^6 cells) ± standard deviate (n = 3) (IL-10; 10 μmol/L) [ng/10^6 cells] | IL-10 (ng/10^6 cells) ± standard deviate (n = 3) (IL-10; 20 μmol/L) [ng/10^6 cells] | activity at 10 µM (IL-10; Homo sapiens, 48 h, 10 μmol/L, DMSO control = 100%, read-out: % against control (IL-10 production)) [%] | activity at 20 µM (IL-10; Homo sapiens, 48 h, 20 μmol/L, DMSO control = 100%, read-out: % against control (IL-10 production)) [%] | Peak MFI of CTLA-4 (CTLA-4; 10 μmol/L) | Peak MFI of CTLA-4 (CTLA-4; 20 μmol/L) | activity at 10 µM (CTLA-4; Homo sapiens, 48 h, 10 μmol/L, DMSO control = 100%, read-out: % against control (CTLA-4 expression)) [%] | activity at 20 µM (CTLA-4; Homo sapiens, 48 h, 20 μmol/L, DMSO control = 100%, read-out: % against control (CTLA-4 expression)) [%]
1 | COC(=O)C1=CN2CCc3c([nH]c4c(F)cccc34)[C@@H]2[C@@H]2[C@@H](C)[C@@H](O)C[C@H]12 [Compound 17] | 7.0 ± 0.2 | 6.0 ± 0.2 | 64.2 | 54.2 | 339 | 45 | – | – | – | – | – | – | – | –
2 | COC(=O)C1=CN2CCc3c([nH]c4ccc(Cl)cc34)[C@@H]2[C@@H]2[C@@H](C)[C@@H](O)C[C@H]12 [Compound 12] | 7.1 ± 0.2 | 4.8 ± 0.3 | 75.7 | 50.9 | 485 | 57.2 | – | – | – | – | – | – | – | –
3 | COC(=O)C1=CN2CCc3c([nH]c4ccc(Br)cc34)[C@@H]2[C@@H]2[C@@H](C)[C@@H](O)C[C@H]12 [Compound 13] | 7.7 ± 0.6 | 4.2 ± 0.2 | 81.2 | 44 | 775 | 91.6 | – | – | – | – | – | – | – | –
4 | COC(=O)C1=CN2CCc3c([nH]c4c(C)cccc34)[C@@H]2[C@@H]2[C@@H](C)[C@@H](O)C[C@H]12 [Compound 11] | 7.4 ± 0.2 | 5.6 ± 0.3 | 78.2 | 55.4 | 602 | 59.5 | – | – | – | – | – | – | – | –
5 | COC(=O)C1=CN2CCc3c([nH]c4ccc(OC)cc34)[C@@H]2[C@@H]2[C@@H](C)[C@@H](O)C[C@H]12 [Compound 10] | 8.8 ± 0.4 | 5.6 ± 0.3 | 93.5 | 59.6 | 570 | 56.3 | – | – | – | – | – | – | – | –
6 | COC(=O)C1=CN2CCc3c([nH]c4ccccc34)[C@H]2[C@@H]2C(CO)=CC[C@H]12 [Compound 4] | – | – | – | – | – | – | 8.0 ± 0.2 | 4.3 ± 0.5 | 42.9 | 23 | 796.0 | 621.0 | 93.4 | 72.9
7 | COC(=O)C1=CN2CCc3c([nH]c4ccc(O)cc34)[C@@H]2[C@@H]2[C@@H](C)[C@@H](O)C[C@H]12 [Compound 16] | 9.8 ± 0.3 | 8.6 ± 0.1 | 88.9 | 77.9 | 529 | 70.3 | – | – | – | – | – | – | – | –
8 | COC(=O)C1=CN2CCc3c([nH]c4ccc(OCc5ccccc5)cc34)[C@@H]2[C@@H]2[C@@H](C)[C@@H](O)C[C@H]12 [Compound 15] | 6.5 ± 0.2 | 0.6 ± 0.4 | 59.3 | 5.1 | 284 | 37.7 | – | – | – | – | – | – | – | –
9 | COC(=O)C1=CN2CCc3c([nH]c4cc(OC)ccc34)[C@@H]2[C@@H]2[C@@H](C)[C@@H](O)C[C@H]12 [Compound 8] | 15.5 ± 1.2 | 7.9 ± 0.4 | 94.6 | 48.4 | 361 | 50 | – | – | – | – | – | – | – | –

From US10550120B2, “Indole alkaloid compound having immune checkpoint inhibitory action” (TOHOKU UNIVERSITY, priority 2016, dated 2020)
